Drawing on PubChem BioAssay (NCI), this text covers TGI and GI50 for eight compounds.

Several values for one entry are separate records, joined by “and”; a condition that tells them apart may be missing. Equal values may be shown once.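 Five concentrations, 48 hours, 96-well plates. GI50 = concentration required for 50% inhibition of growth. TGI: total growth inhibition.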 Where only a bound is given, the exact number is not on record here.

Some test systems named below: NCI-H226 lung; HS 578T breast; TK-10 renal; CAKI-1 renal; A498 renal; MDA-MB-435; NCI-H460 lung; MALME-3M melanoma; MCF7 breast; UACC-257 melanoma.
Experiment in all cases: inhibition of tumour cell growth, NCI panel, 48 h

Consider `Cc1cccc(C(C)(C)C)c1NC(=O)C(C#N)C1=C(Cl)C(=O)c2ccccc2C1=O` (configuration not stated), for which the TGI came to 21.2 µM in the experiment on NCI-H226 lung; 52.5 µM with HS 578T breast; 33.3 µM in the experiment with TK-10 renal; 31.5 µM in the experiment on CAKI-1 renal; 44.4 µM in the experiment on A498 renal; 30.6 µM in the experiment on MDA-MB-435. Moreover, the TGI in the experiment with NCI-H460 lung turned out to be 38.5 µM; in the experiment on MALME-3M melanoma, 31.1 µM; in the experiment with MCF7 breast, 32.9 µM; with UACC-257 melanoma, 30.3 µM.
For the compound `N#C/C(=C\c1ccc(O)c(O)c1)C(=O)NCc1ccc(C(F)(F)F)cc1`, the GI50 was 19.8 µM with NCI-H226 lung; 12.6 µM in the experiment on HS 578T breast; 16 µM in the experiment with A498 renal; 5.69 µM with MDA-MB-435; 6.87 µM with NCI-H460 lung; 0.771 µM in the experiment with MALME-3M melanoma. The GI50 is 21.3 µM in the experiment with MCF7 breast and 17.9 µM with UACC-257 melanoma. Further, the TGI with NCI-H226 lung worked out at 54.9 µM; in the experiment with HS 578T breast it was 46.9 µM; with TK-10 renal, 10.4 µM; in the experiment with CAKI-1 renal it was 1.81 µM; in the experiment with A498 renal, 36.1 µM; with MDA-MB-435, 29.4 µM. The TGI is over 43 µM in the experiment with NCI-H460 lung, 30.7 µM in the experiment on MALME-3M melanoma, over 69 µM with MCF7 breast and over 68.6 µM in the experiment with UACC-257 melanoma.
On to `Cc1cc(=O)oc2c(C3=NN(C=O)C(c4ccccc4)C3)c(O)ccc12` (configuration not stated), for which the TGI with NCI-H226 lung is over 100 µM; with HS 578T breast, over 93.2 µM; in the experiment on TK-10 renal, 87.9 µM; with CAKI-1 renal, over 94.9 µM; in the experiment on A498 renal, over 92.9 µM; with MDA-MB-435, over 100 µM. Also, the TGI in the experiment with NCI-H460 lung was over 100 µM; in the experiment with MALME-3M melanoma it was over 85 µM; in the experiment with MCF7 breast it was over 95.5 µM; in the experiment with UACC-257 melanoma, over 100 µM.
For the compound `C[C@@H](O)[C@@H](C)Oc1nc(Nc2ccc(S(=N)(=O)C3CC3)cc2)ncc1C(F)(F)F` (some centres not stated), the GI50 in the experiment on NCI-H226 lung is 0.0288 µM; in the experiment with HS 578T breast, 0.0313 µM; in the experiment on TK-10 renal it was 0.0377 µM; with CAKI-1 renal, 0.039 µM; with A498 renal, 0.021 µM; with MDA-MB-435, 0.0335 µM. Moreover, the GI50 with NCI-H460 lung is 0.0303 µM; in the experiment on MALME-3M melanoma it was 0.0455 µM; in the experiment on MCF7 breast, 0.0169 µM; in the experiment with UACC-257 melanoma, 0.0306 µM. The TGI in the experiment on NCI-H226 lung was 0.106 µM; in the experiment on HS 578T breast, 7.96 µM; in the experiment with TK-10 renal, over 45.9 µM; in the experiment with CAKI-1 renal, over 100 µM; in the experiment on A498 renal, 0.0461 µM; with MDA-MB-435, 1.22 µM. Further, the TGI in the experiment with NCI-H460 lung stood at 11.5 µM; in the experiment with MALME-3M melanoma it was 0.167 µM; in the experiment with MCF7 breast, 29.7 µM; in the experiment on UACC-257 melanoma, 0.133 µM.
In the case of `N#Cc1ncc(C(Cl)Cl)nc1Cl`, the TGI in the experiment with NCI-H226 lung was over 10 µM; in the experiment on HS 578T breast, over 10 µM; in the experiment with TK-10 renal it was 3.82 µM; in the experiment with CAKI-1 renal, 2.89 µM; in the experiment with A498 renal, over 10 µM; in the experiment on MDA-MB-435 it was 3.9 µM. In addition, the TGI is 3.74 µM in the experiment on NCI-H460 lung, over 6.39 µM with MALME-3M melanoma, 3.86 µM in the experiment on MCF7 breast and 2.99 µM in the experiment with UACC-257 melanoma.
Regarding `O=CC(OC(=O)c1ccccc1)C(OC(=O)c1ccccc1)C(COC(c1ccccc1)(c1ccccc1)c1ccccc1)OC(=O)c1ccccc1` (configuration not stated), the GI50 in the experiment on NCI-H226 lung was 18.9 µM; in the experiment with HS 578T breast, 33.2 µM; in the experiment with TK-10 renal it was 20.4 µM; in the experiment on CAKI-1 renal, 25.1 µM; in the experiment on A498 renal, 15.5 µM; in the experiment on MDA-MB-435, 12.8 µM. In addition, the GI50 in the experiment with NCI-H460 lung was 17.1 µM; in the experiment with MALME-3M melanoma, 30.3 µM; in the experiment on MCF7 breast, 6.38 µM; with UACC-257 melanoma it was 13.9 µM. Besides, the TGI in the experiment on NCI-H226 lung is 64.4 µM; with HS 578T breast it was over 100 µM; with TK-10 renal it was 50.3 µM; in the experiment with CAKI-1 renal it was 72.2 µM; in the experiment with A498 renal it was 29.7 µM; in the experiment with MDA-MB-435, 46.7 µM. Further, the TGI in the experiment with NCI-H460 lung was 37.8 µM; in the experiment on MALME-3M melanoma, 95.2 µM; in the experiment on MCF7 breast, 23.7 µM; in the experiment with UACC-257 melanoma it was 34.4 µM.
`COc1cc2c(Oc3ccc(NC(=O)C4(C(=O)Nc5ccc(F)cc5)CC4)cc3F)ccnc2cc1OCCCN1CCOCC1`: the GI50 is 0.491 µM and 0.662 µM with NCI-H226 lung; 2.06 µM and 0.387 µM in the experiment with HS 578T breast; 1.03 µM and 1.36 µM in the experiment on TK-10 renal; 0.547 µM and 0.768 µM with CAKI-1 renal; < 0.0462 µM and 0.383 µM in the experiment on A498 renal; 0.694 µM in the experiment on MDA-MB-435. The GI50 is 0.521 µM and 0.575 µM in the experiment on NCI-H460 lung; 0.635 µM and 0.571 µM in the experiment with MALME-3M melanoma; 0.515 µM and 0.546 µM with MCF7 breast; 1.19 µM in the experiment on UACC-257 melanoma. The TGI in the experiment on NCI-H226 lung was 2.07 µM and 3.96 µM; in the experiment with TK-10 renal, 2.57 µM and 4.42 µM; with CAKI-1 renal it was 1.97 µM and > 4.86 µM; in the experiment with A498 renal it was 1.24 µM and 1.7 µM; in the experiment with MDA-MB-435, 2.39 µM; in the experiment on NCI-H460 lung, 2.05 µM and 2.51 µM. Further, the TGI is 2.51 µM and 2.05 µM in the experiment with MALME-3M melanoma; 2.03 µM and 3 µM with MCF7 breast; 2.78 µM in the experiment on UACC-257 melanoma.
For the compound `Cc1nnc(C[C@@H]2C=C(c3ccc(Cl)cc3)c3ccccc3-n3c(C)nnc32)o1`, the GI50 in the experiment on NCI-H226 lung is 12.6 µM; in the experiment on HS 578T breast it was 0.578 µM; with TK-10 renal, 0.148 µM; in the experiment with CAKI-1 renal, 0.133 µM; in the experiment with A498 renal it was 0.712 µM; with MDA-MB-435, 0.858 µM. For the same compound, the GI50 in the experiment on NCI-H460 lung is 11.7 µM; in the experiment on MALME-3M melanoma, 5.01 µM; in the experiment on MCF7 breast it was 0.221 µM; in the experiment on UACC-257 melanoma, 2.43 µM. The TGI is over 100 µM in the experiment on NCI-H226 lung; 46.1 µM in the experiment with HS 578T breast; 27.1 µM in the experiment on TK-10 renal; 93.7 µM with CAKI-1 renal; 12.7 µM in the experiment on A498 renal; 55.9 µM in the experiment on MDA-MB-435. The TGI in the experiment on NCI-H460 lung is over 100 µM; in the experiment on MALME-3M melanoma, 64.6 µM; with MCF7 breast, over 100 µM; with UACC-257 melanoma, over 100 µM.
